From the NIST ThermoML archive (doi:10.1016/j.fluid.2013.02.008)
± gives the expanded uncertainty stated by the source. Blank lines part the entries; values can stand above or below the molecule they belong to.

Test: activity coefficient (dimensionless); of the first substance listed, at infinite dilution; xn = mol fraction of the nth substance listed
Conditions: Liquid, Chromatography, x1 = 0

activity coefficient (359.5 K, 101 kPa): 1680 ± 120
activity coefficient (373.1 K, 101 kPa): 1210 ± 84
activity coefficient (392.4 K, 101 kPa): 804 ± 55
activity coefficient (411.5 K, 101 kPa): 557 ± 38
activity coefficient (431 K, 101 kPa): 454 ± 31
SMILES: CCCCCCCCCC [decane] + OCCO

activity coefficient (312.1 K, 101 kPa): 314 ± 22
activity coefficient (333.1 K, 101 kPa): 283 ± 19
activity coefficient (352.1 K, 101 kPa): 224 ± 15
activity coefficient (372.1 K, 101 kPa): 187 ± 13
activity coefficient (391.1 K, 101 kPa): 148 ± 10
SMILES: CCCCCCCC [octane] + OCCCO

activity coefficient (313.2 K, 101 kPa): 97.8 ± 6.7
activity coefficient (332.1 K, 101 kPa): 88.1 ± 6
activity coefficient (353.5 K, 101 kPa): 80.6 ± 5.5
SMILES: CCCCCC [hexane] + OCCO

activity coefficient (353 K, 101 kPa): 2.1 ± 0.14
activity coefficient (372.4 K, 101 kPa): 1.9 ± 0.13
activity coefficient (392 K, 101 kPa): 1.79 ± 0.12
activity coefficient (430.3 K, 101 kPa): 1.68 ± 0.11
SMILES: CCCCCCCCCC [decane] + CCCCCCCCCCCCCCO

activity coefficient (352.8 K, 101 kPa): 2.98 ± 0.2
activity coefficient (372.2 K, 101 kPa): 2.73 ± 0.19
activity coefficient (391.6 K, 101 kPa): 2.6 ± 0.18
SMILES: CCCCCCCCCC [decane] + CCCCCCCCCCO

activity coefficient (331.8 K, 101 kPa): 1.69 ± 0.11
activity coefficient (353 K, 101 kPa): 1.6 ± 0.11
SMILES: CCCCCC [hexane] + CCCCCCCCCCCCCCO

activity coefficient (312.1 K, 101 kPa): 77.2 ± 5.3
activity coefficient (333.1 K, 101 kPa): 72.9 ± 5
activity coefficient (352.1 K, 101 kPa): 52.4 ± 3.6
SMILES: CCCCCC [hexane] + OCCCO

activity coefficient (332.1 K): 631 ± 43
activity coefficient (353.6 K): 447 ± 31
activity coefficient (372.7 K): 383 ± 26
activity coefficient (392.4 K): 313 ± 22
SMILES: CCCCCCCC [octane] + OCCO

activity coefficient (352.7 K, 101 kPa): 2.44 ± 0.17
activity coefficient (372.2 K, 101 kPa): 2.28 ± 0.16
activity coefficient (391.8 K, 101 kPa): 2.15 ± 0.15
SMILES: CCCCCCCC [octane] + CCCCCCCCCCO

activity coefficient (353.3 K, 101 kPa): 2.29 ± 0.16
activity coefficient (362.6 K, 101 kPa): 2.21 ± 0.15
activity coefficient (372.4 K, 101 kPa): 2.16 ± 0.15
activity coefficient (383 K, 101 kPa): 2.08 ± 0.14
activity coefficient (411.1 K, 101 kPa): 1.9 ± 0.13
activity coefficient (430.6 K, 101 kPa): 1.76 ± 0.12
SMILES: CCCCCCCC [octane] + CCCCCCCCCCCCO

activity coefficient (312.6 K, 101 kPa): 2.21 ± 0.15
activity coefficient (331.7 K, 101 kPa): 2.14 ± 0.15
activity coefficient (352.9 K, 101 kPa): 2.02 ± 0.14
SMILES: CCCCCC [hexane] + CCCCCCCCCCO

activity coefficient (312.1 K, 101 kPa): 793 ± 55
activity coefficient (333.1 K, 101 kPa): 589 ± 41
activity coefficient (352.1 K, 101 kPa): 501 ± 34
activity coefficient (372.1 K, 101 kPa): 464 ± 32
activity coefficient (391.1 K, 101 kPa): 338 ± 23
activity coefficient (411.1 K, 101 kPa): 256 ± 18
SMILES: CCCCCCCCCC [decane] + OCCCO

activity coefficient (352.7 K, 101 kPa): 3.46 ± 0.24
activity coefficient (362.5 K, 101 kPa): 2.93 ± 0.2
activity coefficient (372.8 K, 101 kPa): 2.67 ± 0.18
activity coefficient (382.9 K, 101 kPa): 2.42 ± 0.16
activity coefficient (392 K, 101 kPa): 2.31 ± 0.16
activity coefficient (410.9 K, 101 kPa): 2.31 ± 0.16
activity coefficient (430.6 K, 101 kPa): 2.18 ± 0.15
SMILES: CCCCCCCCCC [decane] + CCCCCCCCCCCCO

activity coefficient (312.7 K, 101 kPa): 2.03 ± 0.14
activity coefficient (332.1 K, 101 kPa): 1.98 ± 0.13
activity coefficient (353.2 K, 101 kPa): 1.86 ± 0.13
SMILES: CCCCCC [hexane] + CCCCCCCCCCCCO

activity coefficient (353 K, 101 kPa): 1.87 ± 0.08
activity coefficient (372.4 K, 101 kPa): 1.76 ± 0.07
activity coefficient (391.9 K, 101 kPa): 1.69 ± 0.07
activity coefficient (410.6 K, 101 kPa): 1.63 ± 0.07
activity coefficient (430.6 K, 101 kPa): 1.61 ± 0.06
SMILES: CCCCCCCC [octane] + CCCCCCCCCCCCCCO
